Where two headings read alike, the source gives them in different places.
Test system: patients with advanced metastatic cancer
From the text: In this phase 1 study, dose escalation was followed by expansion cohorts of once-daily, oral M2698 in continuous 21-day cycles. Primary objectives were to determine the maximum tolerated dose (MTD), dose-limiting toxicities (DLTs), and recommended phase 2 dose (RP2D). Secondary objectives were to assess safety and tolerability, pharmacokinetics (PK, including food effect) and antitumor activity. Pharmacodynamic biomarker assessments were exploratory. Treatment was discontinued if there was disease progression, toxicity or consent withdrawal.
In Part 1, M2698 monotherapy was investigated in a dose escalation with a food effect cohort. In Part 2, M2698 was investigated as monotherapy (expansion cohort) to further characterize safety, tolerability and pharmacokinetics, and assess antitumor activity in PAM + patients without confounding markers (exploratory).
Dose escalation analysis included all patients who experienced a DLT and those who received ≥ 80% of planned M2698 doses in cycle 1 without experiencing a DLT. Safety analysis included all patients who received ≥ 1 dose of M2698. PK analysis included all patients who received ≥ 1 dose of M2698 and had measurable plasma concentrations. Dose proportionality was tested using the power model (linear regression approach on the log -transformed scale).

NC(=O)c1cccc2c(N[C@H](CN3CCC3)c3ccc(Cl)c(C(F)(F)F)c3)ncnc12 [M2698]
M2698-related TEAE: Abnormal dreams (15 mg n=3): 0
M2698-related TEAE: Affect lability (15 mg n=3): 0
M2698-related TEAE: Alanine aminotransferase increased (15 mg n=3): 0
M2698-related TEAE: Amylase increased (15 mg n=3): 0
M2698-related TEAE: Anaemia (15 mg n=3): 0
M2698-related TEAE: Angina pectoris (15 mg n=3): 0
M2698-related TEAE: Anxiety (15 mg n=3): 0
M2698-related TEAE: Aphasia (15 mg n=3): 0
M2698-related TEAE: Ataxia (15 mg n=3): 0
M2698-related TEAE: Blood and lymphatic system disorders (15 mg n=3): 0
M2698-related TEAE: Blood creatine phosphokinase increased (15 mg n=3): 0
M2698-related TEAE: Blood creatinine increased (15 mg n=3): 0
M2698-related TEAE: Cardiac disorders (15 mg n=3): 0
M2698-related TEAE: Cognitive disorder (15 mg n=3): 0
M2698-related TEAE: Constipation (15 mg n=3): 0
M2698-related TEAE: Decreased appetite (15 mg n=3): 0
M2698-related TEAE: Delusion (15 mg n=3): 0
M2698-related TEAE: Depression (15 mg n=3): 0
M2698-related TEAE: Diarrhoea (15 mg n=3): 0
M2698-related TEAE: Diarrhoea haemorrhagic (15 mg n=3): 0
M2698-related TEAE: Dizziness (15 mg n=3): 0
M2698-related TEAE: Dry eye (15 mg n=3): 0
M2698-related TEAE: Dry mouth (15 mg n=3): 0
M2698-related TEAE: Dysgeusia (15 mg n=3): 0
M2698-related TEAE: Dyspepsia (15 mg n=3): 0
M2698-related TEAE: Dysphagia (15 mg n=3): 0
M2698-related TEAE: Energy increased (15 mg n=3): 0
M2698-related TEAE: Erythema (15 mg n=3): 0
M2698-related TEAE: Euphoric mood (15 mg n=3): 0
M2698-related TEAE: Eye disorders (15 mg n=3): 0
M2698-related TEAE: Fatigue (15 mg n=3): 0
M2698-related TEAE: Gamma-glutamyltransferase increased (15 mg n=3): 1
M2698-related TEAE: Gastrointestinal disorders (15 mg n=3): 0
M2698-related TEAE: Gastrooesophageal reflux disease (15 mg n=3): 0
M2698-related TEAE: General disorders and administration site conditions (15 mg n=3): 0
M2698-related TEAE: Headache (15 mg n=3): 0
M2698-related TEAE: Hyperhidrosis (15 mg n=3): 0
M2698-related TEAE: Hypokalaemia (15 mg n=3): 0
M2698-related TEAE: Hypomagnesaemia (15 mg n=3): 0
M2698-related TEAE: Insomnia (15 mg n=3): 0
M2698-related TEAE: Investigations (15 mg n=3): 1
M2698-related TEAE: Lipase increased (15 mg n=3): 0
M2698-related TEAE: Lymphopenia (15 mg n=3): 0
M2698-related TEAE: Metabolism and nutrition disorders (15 mg n=3): 0
M2698-related TEAE: Mucosal inflammation (15 mg n=3): 0
M2698-related TEAE: Nausea (15 mg n=3): 0
M2698-related TEAE: Nervous system disorders (15 mg n=3): 0
M2698-related TEAE: Nightmare (15 mg n=3): 0
M2698-related TEAE: Onychomadesis (15 mg n=3): 0
M2698-related TEAE: Paranoia (15 mg n=3): 0
M2698-related TEAE: Photosensitivity reaction (15 mg n=3): 0
M2698-related TEAE: Posterior reversible encephalopathy syndrome (15 mg n=3): 0
M2698-related TEAE: Pruritus generalised (15 mg n=3): 0
M2698-related TEAE: Psychiatric disorders (15 mg n=3): 0
M2698-related TEAE: Rash (15 mg n=3): 0
M2698-related TEAE: Rash maculo-papular (15 mg n=3): 0
M2698-related TEAE: Skin and subcutaneous tissue disorders (15 mg n=3): 0
M2698-related TEAE: Subjects with at least one event (15 mg n=3): 1
M2698-related TEAE: Transaminases increased (15 mg n=3): 0
M2698-related TEAE: Tremor (15 mg n=3): 0
M2698-related TEAE: Vision blurred (15 mg n=3): 0
M2698-related TEAE: Vomiting (15 mg n=3): 0
M2698-related TEAE: White blood cell count decreased (15 mg n=3): 0
M2698-related TEAE: Abnormal dreams (30 mg n=3): 0
M2698-related TEAE: Affect lability (30 mg n=3): 0
M2698-related TEAE: Alanine aminotransferase increased (30 mg n=3): 0
M2698-related TEAE: Amylase increased (30 mg n=3): 0
M2698-related TEAE: Anaemia (30 mg n=3): 0
M2698-related TEAE: Angina pectoris (30 mg n=3): 0
M2698-related TEAE: Anxiety (30 mg n=3): 0
M2698-related TEAE: Aphasia (30 mg n=3): 0
M2698-related TEAE: Ataxia (30 mg n=3): 0
M2698-related TEAE: Blood and lymphatic system disorders (30 mg n=3): 0
M2698-related TEAE: Blood creatine phosphokinase increased (30 mg n=3): 0
M2698-related TEAE: Blood creatinine increased (30 mg n=3): 0
M2698-related TEAE: Cardiac disorders (30 mg n=3): 0
M2698-related TEAE: Cognitive disorder (30 mg n=3): 0
M2698-related TEAE: Constipation (30 mg n=3): 0
M2698-related TEAE: Decreased appetite (30 mg n=3): 0
M2698-related TEAE: Delusion (30 mg n=3): 0
M2698-related TEAE: Depression (30 mg n=3): 0
M2698-related TEAE: Diarrhoea (30 mg n=3): 1
M2698-related TEAE: Diarrhoea haemorrhagic (30 mg n=3): 0
M2698-related TEAE: Dizziness (30 mg n=3): 0
M2698-related TEAE: Dry eye (30 mg n=3): 0
M2698-related TEAE: Dry mouth (30 mg n=3): 0
M2698-related TEAE: Dysgeusia (30 mg n=3): 0
M2698-related TEAE: Dyspepsia (30 mg n=3): 0
M2698-related TEAE: Dysphagia (30 mg n=3): 0
M2698-related TEAE: Energy increased (30 mg n=3): 0
M2698-related TEAE: Erythema (30 mg n=3): 0
M2698-related TEAE: Euphoric mood (30 mg n=3): 0
M2698-related TEAE: Eye disorders (30 mg n=3): 1
M2698-related TEAE: Fatigue (30 mg n=3): 0
M2698-related TEAE: Gamma-glutamyltransferase increased (30 mg n=3): 0
M2698-related TEAE: Gastrointestinal disorders (30 mg n=3): 1
M2698-related TEAE: Gastrooesophageal reflux disease (30 mg n=3): 0
M2698-related TEAE: General disorders and administration site conditions (30 mg n=3): 0
M2698-related TEAE: Headache (30 mg n=3): 0
